Source: US5023237A, “Methods and compositions for healing ulcers” (priority 1989, dated 1991)
“Also recorded” adds a separate entry of the source. Peptide text beside a SMILES is read from it.

Tests used:
[1] = system: Stomach ulcers induced by the Shay procedure (buildup of stomach acid); test: Shay model, stomach acidity and mucous secretion (Example 7); format: in vivo, rat; set-up: key to Mucous Production: 0 represented substantially no mucous observed; ++++ represented a very heavy mucous secretion; settings: rats, after 24 hours; for Stomach acidity pH ± standard deviation: 10 mg in 0.25 ml saline intubated into the stomach
Description: Stomach ulcers were induced in rates by the Shay procedure. Briefly stated, the passage between the stomach and the intestine in the rat is tied off, thereby causing a buildup of stomach acid, resulting in ulceration. For treatment, the rats received 10 mg of GHL or GHL-Cu or a derivative thereof in 0.25 ml saline intubated into the stomach. Control rats received saline only. After 24 hours, the stomachs were photographed and the stomach acidity determined.
The results of the experiments are shown in Table 1, which depicts the inhibition of stomach acid accumulation and stimulation of cytoprotective mucous secretion in the rats. The mucous production was visually rated from 0 to ++++, where 0 represented substantially no mucous observed and ++++ represented a very heavy mucous secretion.

[2] = system: Stomach ulcers induced by the Shay procedure; test: Shay model, stomach ulcer formation and acid secretion (Example 8); format: in vivo, rat; settings: for pH: stomach contents after 24 hours; for % WITH ULCERS: positive if a single lesion is noted; for Ulcer formation and stomach acid secretion, in words: Shay model, compared with saline controls
Description: Stomach ulcers were induced in rats by the Shay procedure. Briefly, the passage between the stomach and the intestine in the rat is tied off, thereby causing a buildup of stomach acid. Ulcer formation is visible after 18-24 hours of ligation.
For treatment, the rats received either GHL-Cu or a derivative in 0.25 ml of saline into the stomach via a gastric feeding tube immediately after the surgical procedure. Control rats received saline only. After 24 hours, the rats were sacrificed, the stomachs were removed and photographed. The acidity of the stomach contents was also measured.
In the experiments reported here, the rats were treated with various doses of glycyl-L-histidyl-L-lysine (GHL), GHL-Cu (2:1), or GHL-Cu (1:1) complex of various analogs of GHL as the 1:1 copper complexes.
Stomach ulcers were induced in groups of rats as described above. The animals were dosed with increasing amounts of either GHL:Cu at a molar ration of 2 moles of GHL to 1 mole of Cu (2:1), equimolar complex (1:1), and GHL without copper. After 24 hours, the stomachs were removed, the pH was determined and the percent of stomachs with visible ulcers was determined.
The presence of ulcers is scored positive if a single lesion is noted, regardless of the size.

[3] = system: Duodenal ulcers induced by cysteamine; test: Healing of cysteamine-induced duodenal ulcers (Example 9); format: in vivo, S.D. rats; settings: for Healing of duodenal ulcers, in words: drinking water treatment, compared to controls
Description: Cysteamine will induce chronic duodenal ulcers in rats when injected subcutaneously (Olsen, P. S., Poulsen, S. S., Therkelsen, K., and Nexo, E., Oral administration of synthetic human urogastrone promotes healing of chronic duodenal ulcers in rats, Gastroenterology 90:911-917 (1986)).
Duodenal ulcers were induced in a group of 40 S.D. rats (male and female) by subcutaneous injections of cysteamine (350 mg/kg and 175 mg/kg) 6 hours apart. Saline was injected subcutaneously (5 cc) to provide fluid. Surviving animals (n=34) were followed for 7 days then laparotomies were performed. External examinations of the duodenum were made to determine extent of adhesion of the liver or other surrounding tissues. Animals with duodenal ulcers were randomized (by sex) to receive GHL-Cu (2:1) in distilled water, or plain distilled water. Animals were maintained for 25 days after which they were sedated, stomachs and duodenums removed and dissected for internal inspection. The results were obtained and recorded, specimens immersed in 10% buffered formalin for analysis with a stereomicroscope.
(§1) The following rating scale was used to express severity of ulceration:
(§2) 0--no indication of ulceration
1--mild ulceration, no extension through duodenum
2--moderate ulceration, fixation of surrounding tissue
3--extreme ulceration through duodenum
On the day of laparotomy, 28 rats ([…]) were determined to have significant adhesion of the duodenum to surrounding tissues. These animals were randomized by sex to either the GHL-Cu or control group. Following 25 days of drinking water treatment (total dose per day of 0.6 mg/kg), rats were sedated and prepped for dissection. The stomach and duodenum were removed, notations made as to extent of residual adhesions. Internal inspection of the duodenum was made prior to immersion of specimen in 10% formalin. Results at the time of gross inspection indicated 11 out of 14 control animals had significant residual ulcerations extending to the liver primarily.

[4] = system: gastric ulcers induced by 95% ethanol; test: Prevention of ethanol-induced gastric ulcers (Example 10); format: in vivo, SD rats; settings: for Prevention of ethanol-caused gastric irritation and ulceration, in words: pretreatment, 95% ethanol ingestion; for Ulceration after ethanol, in words: stomachs inspected one hour after ethanol
Description: (§3) A series of ethanol induced gastric ulcer studies was conducted. Ulcers were induced by oral administration of 95% ethyl alcohol (Scan. J. Gastroenterol 23:665-671 (1988)). The studies were conducted to determine both the preventative and healing effects of glycl-L-histidyl-L-lysine:Cu.
A dose of 2.0 ml/kg 95% ethanol was chosen to induce gastric ulcers in rats. Prior to the ethanol ingestion, three groups of rats were pretreated with 0.5 ml of 2% glycyl-L-histidyl-L-lysine:Cu (1:1) as follows:
Group 1: 2 hours prior to Ethanol dosing
Group 2: 4 hours prior to Ethanol dosing
Group 3: 6 hours prior to Ethanol dosing
In addition, 4 rats served as controls with no pretreatment. One hour following ethanol administration, the stomachs were removed and inspected for ulceration as described above.

[5] = system: ulcers induced by 95% ethanol; test: Healing of ethanol-induced gastric ulcers (Example 10); format: in vivo, rats; settings: for Healing of ethanol-induced ulcers, in words: drinking water treatment, compared to controls; for # animals with rating 0 (no indication of ulceration) / # animals with rating 1 (some irritation) / # animals with rating 2 (small ulcers present) / # animals with rating 3 (large ulcers present): day 7
Description: as §3
The ability of glycyl-L-histidyl-L-lysine:Cu (2:1) to heal ulcers induced by 95% ethanol has also been examined. In this study, ulcers were induced by administration of 4 ml/kg of 95% ethanol. The rats were then treated with glycyl-L-histidyl-L-lysine:Cu (2:1) in the drinking water at a dose of 0.01 mg/ml and 0.1 mg/ml (total dose per day of 1.6 mg/kg and 16 mg/kg, respectively). The rats were terminated at day 7 after ulcer induction and the stomachs examined for the presence of ulcers.
as §1, §2

[6] = microscopic examination, 25 days drinking water, 0.6 mg/kg per day
[7] = GHL-Cu (2:1) 0.01 mg/ml in drinking water (1.6 mg/kg per day)
[8] = GHL-Cu (2:1) 0.1 mg/ml in drinking water (16 mg/kg per day)

Compound | Stomach acidity pH ± standard deviation [1] [pH] | pH ([2]; dose 10 mg into stomach) [pH] | % WITH ULCERS ([2]; dose 10 mg, after 24 hours) [%] | Ulcer formation and stomach acid secretion, in words [2] | pH ([2]; dose 3 mg into stomach) [pH] | % WITH ULCERS ([2]; dose 3 mg, after 24 hours) [%] | Healing of duodenal ulcers, in words [3] | Prevention of ethanol-caused gastric irritation and ulceration, in words [4] | Healing of ethanol-induced ulcers, in words [5] | further results
NCCCC[C@H](NC(=O)[C@H](Cc1c[nH]cn1)NC(=O)CN)C(=O)O [GHL, glycyl-L-histidyl-L-lysine] (H-Gly-His-Lys-OH) | 3.26 ± 0.47 | 2.84 ± 0.90 | 40 |  |  |  |  |  |  | 
L-lysyl-L-histidyl-glycine:copper(II) [LGH-Cu] |  |  |  | decreased stomach acid secretion and resulted in fewer visible lesions | 3.61 ± 1.00 | 11 | accelerate the healing of established duodenal ulcers | prevent gastric irritation and ulceration | accelerate the healing of ulcers | 
glycyl-L-histidyl-L-lysine n-octyl ester:copper(II) [GHL octyl ester:Cu] |  | 6.18 ± 0.98 | 0 |  | 3.50 ± 1.18 | 25 |  |  |  | 
glycyl-L-histidyl-L-lysine:Cu (1:1) [GHL-Cu(1:1)] |  | 7.23 ± 0.64 | 0 | inhibited ulcer formation and raised the pH of the stomach contents in a dose responsive manner | 4.85 ± 1.17 | 0 |  |  |  | Lesion formation, in words (photographs, FIG. 1) ([2]; 10 mg, after 24 hours): complete inhibition of lesion formation; pH ([2]; dose 1 mg into stomach): 3.80 ± 1.34 pH; % WITH ULCERS ([2]; dose 1 mg, after 24 hours): 33%; Ulceration after ethanol, in words ([4]; 0.5 ml of 2% solution 2 hours prior to 2.0 ml/kg 95% ethanol): No evidence of ulceration; also recorded: totally blocking damage; Ulceration after ethanol, in words ([4]; 0.5 ml of 2% solution 4 hours prior to 2.0 ml/kg 95% ethanol): Significantly better than controls, however, small ulcers were visible; Ulceration after ethanol, in words ([4]; 0.5 ml of 2% solution 6 hours prior to 2.0 ml/kg 95% ethanol): Mixed results
glycyl-L-histidyl-L-lysine:Cu (2:1) [GHL-Cu(2:1)] |  | 6.38 ± 1.01 | 11 | inhibited ulcer formation and raised the pH of the stomach contents in a dose responsive manner | 2.72 ± 1.03 | 50 | the severity was reduced |  |  | # animals with rating 0 (no indication of ulceration) [3, 6]: 4 animals; # animals with rating 1 (mild ulceration, no extension through duodenum) [3, 6]: 5 animals; # animals with rating 2 (moderate ulceration, fixation of surrounding tissue) [3, 6]: 3 animals; # animals with rating 3 (extreme ulceration through duodenum) [3, 6]: 2 animals
glycyl-L-histidyl-L-lysine:copper(II) [GHL-Cu] | 6.94 ± 0.25 |  |  | decreased stomach acid secretion and resulted in fewer visible lesions |  |  | accelerate the healing of established duodenal ulcers | prevent gastric irritation and ulceration | majority of the animals had no demonstrable ulcers; also recorded: accelerate the healing of ulcers | Mucous Production ([1]; 10 mg in 0.25 ml saline, visually rated 0 to ++++): ++++; Animals with residual ulcerations at gross inspection ([3]; GHL-Cu (2:1) in drinking water 25 days, 0.6 mg/kg per day, control 11 out of 14): 7 out of 14; # animals with rating 0 (no indication of ulceration) [5, 7]: 5 animals; # animals with rating 1 (some irritation) [5, 7]: 2 animals; # animals with rating 2 (small ulcers present) [5, 7]: 0 animals; # animals with rating 3 (large ulcers present) [5, 7]: 0 animals; # animals with rating 0 (no indication of ulceration) [5, 8]: 5 animals; # animals with rating 1 (some irritation) [5, 8]: 1 animals; # animals with rating 2 (small ulcers present) [5, 8]: 1 animals; # animals with rating 3 (large ulcers present) [5, 8]: 0 animals
